# Laboratory results as given in US7211557B2, “Use of GLP-1 analogs and derivatives administered peripherally in regulation of obesity” (Eli Lilly and Company, priority 1996, dated 2007).
# Experiments:
# [1] = tested on: STC-1 cells; settings: exposure of STC-1 cells; cited from earlier work
# [2] = Continuous subcutaneous infusion of GLP-1(7-36) amide for four weeks in NIDDM patients, preceded and followed by two weeks of intensive insulin therapy: body weight; assay type: in vivo, human; settings: for body weight lost, average: four patients, mean±SEM
# [3] = cited from earlier work
# [4] = cited from earlier work; remark: listed apart in the source
compound,measurement,setting,value
"CCCCCCCCCCCCCC(=O)O[C@@H]1[C@@H](C)[C@@]2(O)[C@@H](C=C(CO)C[C@]3(O)C(=O)C(C)=C[C@@H]23)[C@@H]2C(C)(C)[C@]12OC(C)=O [TPA, 12-O-tetradecanoylphorbol-13-acetate]",release of GLP-1,[1],significant increases in release of GLP-1
GLP-1(7-36) amide,"body weight lost, average",[2]; during GLP-1 treatment (4 weeks),3.5 ± 1.2 kg
same,Weight Change,"[2]; mean±SEM of patients, GLP-1 infusion 1.2 pmol/kg/minute s.c., 4 weeks",-3.5 ± 1.2 kg
same,Patient Weight,"[2]; mean±SEM of patients, after GLP-1 infusion 1.2 pmol/kg/minute s.c., 4 weeks",92.9 ± 5.8 kg
same,Weight Change,"[2]; patient four, GLP-1 infusion 1.2 pmol/kg/minute s.c., 4 weeks",-3.0 kg
same,Patient Weight,"[2]; patient four, after GLP-1 infusion 1.2 pmol/kg/minute s.c., 4 weeks",108.0 kg
same,Weight Change,"[2]; patient one, GLP-1 infusion 1.2 pmol/kg/minute s.c., 4 weeks",-7.0 kg
same,Patient Weight,"[2]; patient one, after GLP-1 infusion 1.2 pmol/kg/minute s.c., 4 weeks",92.0 kg
same,Weight Change,"[2]; patient three, GLP-1 infusion 1.2 pmol/kg/minute s.c., 4 weeks",-1.9 kg
same,Patient Weight,"[2]; patient three, after GLP-1 infusion 1.2 pmol/kg/minute s.c., 4 weeks",80.0 kg
same,Weight Change,"[2]; patient two, GLP-1 infusion 1.2 pmol/kg/minute s.c., 4 weeks",-2.0 kg
same,Patient Weight,"[2]; patient two, after GLP-1 infusion 1.2 pmol/kg/minute s.c., 4 weeks",91.5 kg
same,effect on body weight,[2]; peripheral administration to obese patients,significant reduction in body weight
same,food intake following injection of neuropeptide Y,"[3]; ICV, animals fed ad libitum",significantly reduces food intake
same,feeding,"[3]; intracerebroventricular route (ICV), fasted rats",markedly inhibits feeding
same,food intake,[4]; acute intraperitoneal administration in rats,does not affect food intake
same,early dark-phase feeding,"[4]; intraperitoneal administration, even at relatively high doses",does not affect early dark-phase feeding
insulin,"body weight lost, average",[2]; first two weeks of intensive insulin treatment,1.3 ± 0.6 kg
same,Weight Change,"[2]; mean±SEM of patients (no data for MP), Second Insulin treatment, 2 weeks",+1.0 ± 1.0 kg
same,Patient Weight,"[2]; mean±SEM of patients (no data for MP), after Second Insulin treatment, 2 weeks",98.2 ± 5.0 kg
same,Weight Change,"[2]; mean±SEM of patients, First Insulin treatment, 2 weeks",-1.3 ± 0.6 kg
same,Patient Weight,"[2]; mean±SEM of patients, after First Insulin treatment, 2 weeks",96.4 ± 6.0 kg
same,Weight Change,"[2]; patient four, First Insulin treatment, 2 weeks",-2.0 kg
same,Weight Change,"[2]; patient four, Second Insulin treatment, 2 weeks",0.0 kg
same,Patient Weight,"[2]; patient four, after First Insulin treatment, 2 weeks",111.0 kg
same,Patient Weight,"[2]; patient four, after Second Insulin treatment, 2 weeks",108.0 kg
same,Weight Change,"[2]; patient one, First Insulin treatment, 2 weeks",-2.5 kg
same,Weight Change,"[2]; patient one, Second Insulin treatment, 2 weeks",3.0 kg
same,Patient Weight,"[2]; patient one, after First Insulin treatment, 2 weeks",99.0 kg
same,Patient Weight,"[2]; patient one, after Second Insulin treatment, 2 weeks",95.0 kg
same,Weight Change,"[2]; patient three, First Insulin treatment, 2 weeks",-0.1 kg
same,Patient Weight,"[2]; patient three, after First Insulin treatment, 2 weeks",81.9 kg
same,Weight Change,"[2]; patient two, First Insulin treatment, 2 weeks",-0.5 kg
same,Weight Change,"[2]; patient two, Second Insulin treatment, 2 weeks",0.0 kg
same,Patient Weight,"[2]; patient two, after First Insulin treatment, 2 weeks",93.5 kg
same,Patient Weight,"[2]; patient two, after Second Insulin treatment, 2 weeks",91.5 kg
same,"body weight change, on average",[2]; second two weeks of intensive insulin treatment,gained weight
